# Reference: PubChem BioAssay AID256 (DTP/NCI, 2004)
# Where “and” joins values, the source holds several entries; their conditions need not be identical. Equal values may be shown once. Inconclusive results and toxic doses are left out.
# Test system: CD2F1 mice, L1210 leukemia ip, survival T/C
# Test: NCI In Vivo Anticancer Drug Screen. Data for tumor model L1210 Leukemia (intraperitoneal) in CD2F1 (CDF1) mice
# Settings: higher = longer survival
# Outline: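 Vehicle-treated tumor-bearing mice served as controls (C) for compound-treated mice (T). Reported figure is T divided by C.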
# [1] = endpoint: mean survival time, dose: 100.0 mg/kg/injection, schedule: Q01DX001 (ip), vehicle: Klucel (hydroxypropylcellulose) (HPC)
# [2] = endpoint: mean survival time, dose: 200.0 mg/kg/injection, schedule: Q01DX001 (ip), vehicle: Klucel (hydroxypropylcellulose) (HPC)
# [3] = endpoint: mean survival time, dose: 400.0 mg/kg/injection, schedule: Q01DX001 (ip), vehicle: Klucel (hydroxypropylcellulose) (HPC)
# [4] = endpoint: mean survival time, dose: 100.0 mg/kg/injection, schedule: Q04DX003 (ip), vehicle: saline with Tween-80
# [5] = endpoint: mean survival time, dose: 200.0 mg/kg/injection, schedule: Q04DX003 (ip), vehicle: saline with Tween-80
# [6] = endpoint: mean survival time, dose: 400.0 mg/kg/injection, schedule: Q04DX003 (ip), vehicle: saline with Tween-80
# [7] = endpoint: mean survival time, dose: 100.0 mg/kg/injection, schedule: Q01DX009 (ip), vehicle: saline with Tween-80
# [8] = endpoint: mean survival time, dose: 200.0 mg/kg/injection, schedule: Q01DX009 (ip), vehicle: saline with Tween-80
# [9] = endpoint: mean survival time, dose: 400.0 mg/kg/injection, schedule: Q01DX009 (ip), vehicle: saline with Tween-80
smiles,measurement,setting,value
CCCCS(=O)(=O)C(c1ccccc1)c1ccccc1,T/C,[1],90 % of control
same,T/C,[2],96 % of control
same,T/C,[3],90 % of control
c1cn[nH]c1,T/C,"endpoint: median survival time, dose: 12.5 mg/kg/injection, schedule: Q01DX009 (ip), vehicle: saline + alcohol",103 % of control and 105 % of control
same,T/C,"endpoint: median survival time, dose: 12.5 mg/kg/injection, schedule: Q01DX009 (ip), vehicle: saline",95 % of control
same,T/C,"endpoint: median survival time, dose: 25.0 mg/kg/injection, schedule: Q01DX009 (ip), vehicle: saline + alcohol",101 % of control and 110 % of control
same,T/C,"endpoint: median survival time, dose: 25.0 mg/kg/injection, schedule: Q01DX009 (ip), vehicle: saline",102 % of control
same,T/C,"endpoint: median survival time, dose: 50.0 mg/kg/injection, schedule: Q01DX009 (ip), vehicle: saline + alcohol",121 % of control and 105 % of control
same,T/C,"endpoint: median survival time, dose: 50.0 mg/kg/injection, schedule: Q01DX009 (ip), vehicle: saline",112 % of control
same,T/C,"endpoint: median survival time, dose: 100.0 mg/kg/injection, schedule: Q01DX009 (ip), vehicle: saline + alcohol",117 % of control
same,T/C,"endpoint: median survival time, dose: 200.0 mg/kg/injection, schedule: Q01DX009 (ip), vehicle: saline + alcohol",90 % of control and 102 % of control
same,T/C,"endpoint: median survival time, dose: 200.0 mg/kg/injection, schedule: Q01DX009 (ip), vehicle: saline",90 % of control
N/C(=N\N=C\c1c(F)c(F)c(F)c(F)c1F)N[N+](=O)[O-],T/C,[4],106 % of control
same,T/C,[5],98 % of control
same,T/C,[6],96 % of control
COCC(O)CN1CCN(c2cccc3c2CCCC3)CC1 (configuration not stated),T/C,"endpoint: mean survival time, dose: 100.0 mg/kg/injection, schedule: Q01DX001 (ip), vehicle: saline with Tween-80",97 % of control
same,T/C,"endpoint: mean survival time, dose: 200.0 mg/kg/injection, schedule: Q01DX001 (ip), vehicle: saline with Tween-80",100 % of control
Nc1nc2c(ncn2C2OC(CO)C(O)C2O)c(=O)[nH]1 (configuration not stated),T/C,"endpoint: mean survival time, dose: 25.0 mg/kg/injection, schedule: Q01DX009 (ip), vehicle: saline with Tween-80",98 % of control and 105 % of control
same,T/C,"endpoint: mean survival time, dose: 50.0 mg/kg/injection, schedule: Q01DX009 (ip), vehicle: saline with Tween-80",101 % of control and 103 % of control
same,T/C,[7],98 % of control and 102 % of control
same,T/C,[8],95 % of control and 104 % of control
same,T/C,[9],101 % of control and 104 % of control
same,T/C,"endpoint: mean survival time, dose: 800.0 mg/kg/injection, schedule: Q01DX009 (ip), vehicle: saline with Tween-80",98 % of control and 110 % of control
same,T/C,"endpoint: median survival time, dose: 1000.0 mg/kg/injection, schedule: Q01DX009 (ip), vehicle: saline with Tween-80",106 % of control
same,T/C,"endpoint: median survival time, dose: 1500.0 mg/kg/injection, schedule: Q01DX009 (ip), vehicle: saline with Tween-80",89 % of control
same,T/C,"endpoint: median survival time, dose: 2000.0 mg/kg/injection, schedule: Q01DX009 (ip), vehicle: saline with Tween-80",91 % of control and 108 % of control
O=C(O)CCCCCc1ccccc1,T/C,[7],96 % of control
same,T/C,[4],102 % of control
same,T/C,[8],95 % of control
same,T/C,[5],91 % of control
same,T/C,[9],101 % of control
same,T/C,[6],101 % of control
COc1nc(NC2OC(CO)C(O)C(O)C2O)cc(=O)n1C (configuration not stated),T/C,"endpoint: median survival time, dose: 12.5 mg/kg/injection, schedule: Q01DX005 (ip), vehicle: saline",98 % of control
same,T/C,"endpoint: median survival time, dose: 25.0 mg/kg/injection, schedule: Q01DX005 (ip), vehicle: saline",98 % of control
same,T/C,"endpoint: median survival time, dose: 50.0 mg/kg/injection, schedule: Q01DX005 (ip), vehicle: saline",100 % of control
same,T/C,"endpoint: median survival time, dose: 100.0 mg/kg/injection, schedule: Q01DX005 (ip), vehicle: saline",102 % of control
same,T/C,"endpoint: median survival time, dose: 200.0 mg/kg/injection, schedule: Q01DX005 (ip), vehicle: saline",102 % of control
O=C(O)CCC(=O)Nc1ccccc1C(=O)O,T/C,[7],102 % of control
same,T/C,[8],93 % of control
same,T/C,[9],96 % of control
CCOC(c1ccccc1)(c1ccccc1)c1ccccc1,T/C,"endpoint: mean survival time, dose: 100.0 mg/kg/injection, schedule: Q01DX009 (ip), vehicle: other",98 % of control
same,T/C,"endpoint: mean survival time, dose: 200.0 mg/kg/injection, schedule: Q01DX009 (ip), vehicle: other",102 % of control
same,T/C,"endpoint: mean survival time, dose: 400.0 mg/kg/injection, schedule: Q01DX009 (ip), vehicle: other",96 % of control
CC1(C)CN1P(=S)(N1CC1(C)C)N1CC1(C)C (configuration not stated),T/C,"endpoint: mean survival time, dose: 338.0 mg/kg/injection, schedule: Q01DX001 (ip), vehicle: other",190 % of control and 277 % of control
CCCCNc1ncnc2snnc12,T/C,[1],101 % of control
same,T/C,[2],98 % of control
same,T/C,[3],104 % of control
